# Test system: P. falciparum 3D7 parasites (schizonts)
# Experiment: YnMyr treatment of schizonts: morphology and life cycle progression
# Format: cell-based
# Details: up to 50 μM, 5 h
smiles,measurement,value
"C#CCCCCCCCCCCCC(=O)O [YnMyr, tetradec-13-ynoic acid]",changes in morphology or life cycle progression,no changes were observed in morphology or life cycle progression

# Source: publication PMC4739506 (Nature chemistry, 2013)
